# Source: patent US11584928B2, “Methods for generating barcoded combinatorial libraries” (The Regents of the University of Colorado, priority 2016, dated 2023)
# System: galK
# Experiment: galK editing with MAD2 or MAD7 nuclease and various guide nucleic acid scaffolds, white/red screening
# Format: cell-based, E. coli
# Conditions: guide sequence targeting galK
# Excerpt: MAD2 and MAD7 nucleases are nucleic acid-guided nuclease that can be used in the methods disclosed herein. Nucleases Mad2 (SEQ ID NO: 2) and Mad 7 (SEQ ID NO: 7) were cloned and transformed into cells. Editing cassettes designed to mutate a target site in a galK gene were designed with mutations, which allowed for white/red screening of successfully editing colonies. The editing cassettes also encoded a guide nucleic acid designed to target galK. The editing cassettes were transformed into E. coli cells expressing MAD2, MAD7, or Cas9. […] In this example, the guide nucleic acid used with MAD2 and MAD7 comprised a scaffold-12 sequence and a guide sequence targeting galK. The guide nucleic acid used with Cas9 comprised a sequence compatible with the S. pyogenes Cas9.
# (§1) FIG. 32 and Table 3 show more examples of gene editing using the MAD2 nuclease. In this experiment, different guide nucleic acid sequences were tested. The guide sequence of the guide nucleic acids targeted the galK gene as described above. The scaffold sequence of the guide nucleic acids were one of various sequences tested as indicated.
# as §1, with “33” for “32”, “4” for “3”, “MAD7” for “MAD2”, “indicated. […] Table 3 and Table 4 also provided the designed mutations in the editing cassettes that were used to mutate the galK target gene.” for “indicated.”
Substance,formation of functional complexes with MAD2,formation of functional complexes with MAD7
"scaffold-5: guide nucleic acid scaffold sequence, SEQ ID NO: 88 (guide CCGTCTAAAACTCATTCAGAATTTCTACTAGTGTAGAT; chemistry not given here)",able to form functional complexes,
"scaffold-10: guide nucleic acid scaffold sequence, SEQ ID NO: 93 (guide CTCTACAACTGATAAAGAATTTCTACTTTTGTAGAT; chemistry not given here)",able to form functional complexes,able to form functional complexes
"scaffold-11: guide nucleic acid scaffold sequence, SEQ ID NO: 94 (guide GTCTGGCCCCAAATTTTAATTTCTACTGTTGTAGAT; chemistry not given here)",able to form functional complexes,able to form functional complexes
"scaffold-12: guide nucleic acid scaffold sequence, SEQ ID NO: 95 (guide GTCAAAAGACCTTTTTAATTTCTACTCTTGTAGAT; chemistry not given here)",able to form functional complexes,able to form functional complexes
